Laboratory results as given in US6737383B1, “Herbicidal oxadiazolidines” (priority 1999, dated 2004).

Experiments:
blackgrass = test: Test B pre/postemergence blackgrass; assay type: in vivo, Alopecurus myosuroides
Outline: (§1)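 Test chemicals in a non-phytotoxic solvent mixture with surfactant were sprayed preemergence onto planted seeds and postemergence onto plants 2 to 18 cm tall (1- to 4-leaf stage). After twelve to sixteen days in a greenhouse, injury was visually rated against untreated controls from 0 (no effect) to 10 (complete control).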

crabgrass = test: Test B pre/postemergence crabgrass; assay type: in vivo, Digitaria sanguinalis
Outline: as §1

morningglory = test: Test B pre/postemergence morningglory; assay type: in vivo, Ipomoea hederacea
Outline: as §1

bamyardgrass = test: Test B flood test barnyardgrass; assay type: in vivo, Echinochloa crus-galli
Outline: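 Read-out is a visual response score from 0 (no effect) to 10 (complete control), assigned by comparison with untreated controls. Treatment was applied at the 2-leaf stage, and plants stayed in the greenhouse for twelve to sixteen days before scoring.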

[1] = Postemergence, Rate 125 g/ha, scale 0 to 10, 0 is no effect, 10 is complete control
[2] = Postemergence, Rate 250 g/ha, scale 0 to 10, 0 is no effect, 10 is complete control
[3] = Postemergence, Rate 500 g/ha, scale of 0 to 10 where 0 is no effect and 10 is complete control
[4] = Preemergence, Rate 62 g/ha, scale 0 to 10 (0 no effect, 10 complete control)
[5] = Preemergence, Rate 125 g/ha, scale of 0 to 10 where 0 is no effect and 10 is complete control
[6] = Preemergence, Rate 250 g/ha, scale of 0 to 10 where 0 is no effect and 10 is complete control
[7] = Preemergence, Rate 500 g/ha, scale 0 to 10, 0 is no effect, 10 is complete control
[8] = Rate 62 g/ha, Postemergence, scale of 0 to 10 where 0 is no effect and 10 is complete control
[9] = Preemergence, Rate 250 g/ha, scale 0 to 10, 0 is no effect, 10 is complete control
[10] = Postemergence (flood test), Rate 125 g/ha, scale 0 to 10, 0 is no effect, 10 is complete control
[11] = Postemergence section (flood test species), Rate 500 g/ha, scale of 0 to 10 where 0 is no effect and 10 is complete control
[12] = Rate 62 g/ha, Postemergence (flood test species), scale of 0 to 10 where 0 is no effect and 10 is complete control
[13] = flood test species, listed under Postemergence, Rate 250 g/ha, scale 0 to 10, 0 is no effect, 10 is complete control
[14] = Rate 125 g/ha, Postemergence, scale 0 to 10, 0 is no effect, 10 is complete control

CC(C)N(C(=O)n1oc(=O)n(CCCC(F)(F)F)c1=O)c1ccc(F)cc1 [Compound 398]
10: Blackgrass plant response rating (blackgrass; [7]) | Plant response rating, Crabgrass (crabgrass; [5]) | Crabgrass plant response rating (crabgrass; [9]) | Crabgrass plant response rating (crabgrass; [7])
8: Plant response rating, Blackgrass (blackgrass; [5]) | Blackgrass plant response rating (blackgrass; [6]) | Morningglory plant response rating (morningglory; [3])
0: Blackgrass plant response rating (blackgrass; [8]) | Plant response rating, Morningglory (morningglory; [4]) | Plant response rating, Morningglory (morningglory; [5]) | Morningglory plant response rating (morningglory; [9]) | Morningglory plant response rating (morningglory; [7]) | Plant response rating, Barnyardgrass (bamyardgrass; [10]) | Barnyardgrass plant response rating (bamyardgrass; [11]) | Barnyardgrass plant response rating (bamyardgrass; [12]) | Plant response rating, Barnyardgrass (bamyardgrass; [13])
2: Crabgrass plant response rating (crabgrass; [8]) | Morningglory plant response rating (morningglory; [8])
6: Plant response rating, Blackgrass (blackgrass; [1])
3: Plant response rating, Blackgrass (blackgrass; [4]) | Plant response rating, Crabgrass (crabgrass; [1]) | Plant response rating, Morningglory (morningglory; [2])
9: Plant response rating, Blackgrass (blackgrass; [2]) | Blackgrass plant response rating (blackgrass; [3]) | Plant response rating, Crabgrass (crabgrass; [2]) | Crabgrass plant response rating (crabgrass; [3]) | Plant response rating, Crabgrass (crabgrass; [4])

C=CC[Si](C)(C)Cn1c(=O)on(C(=O)N(c2ccc(Cl)cc2)C(C)C)c1=O [Compound 414]
8: Morningglory plant response rating (morningglory; [3])
2: Plant response rating, Blackgrass (blackgrass; [1]) | Plant response rating, Crabgrass (crabgrass; [4])
9: Crabgrass plant response rating (crabgrass; [3]) | Crabgrass plant response rating (crabgrass; [9])
10: Blackgrass plant response rating (blackgrass; [7]) | Crabgrass plant response rating (crabgrass; [7])
1: Crabgrass plant response rating (crabgrass; [8])
7: Blackgrass plant response rating (blackgrass; [3]) | Plant response rating, Crabgrass (crabgrass; [5]) | Plant response rating, Morningglory (morningglory; [2])
6: Plant response rating, Crabgrass (crabgrass; [2])
3: Blackgrass plant response rating (blackgrass; [6]) | Plant response rating, Crabgrass (crabgrass; [1])
5: Plant response rating, Blackgrass (blackgrass; [2])
0: Plant response rating, Blackgrass (blackgrass; [4]) | Plant response rating, Blackgrass (blackgrass; [5]) | Blackgrass plant response rating (blackgrass; [8]) | Plant response rating, Morningglory (morningglory; [4]) | Plant response rating, Morningglory (morningglory; [5]) | Morningglory plant response rating (morningglory; [9]) | Morningglory plant response rating (morningglory; [7]) | Plant response rating, Barnyardgrass (0 to 10 scale, 0 is no effect, 10 is complete control) (bamyardgrass; Rate 62 g/ha, flood test species, Pre-emergence, visual evaluation after twelve to sixteen days) | Barnyardgrass plant response rating (0 to 10 scale, 0 is no effect, 10 is complete control) (bamyardgrass; Rate 125 g/ha, under heading Pre-emergence, flood test species, visual evaluation after twelve to sixteen days) | Barnyardgrass plant response rating (bamyardgrass; Rate 250 g/ha, Pre-emergence (flood test species), scale 0 to 10, 0 is no effect, 10 is complete control) | Barnyardgrass plant response rating (bamyardgrass; Rate 500 g/ha, Pre-emergence, flood test species, scale 0 to 10 (0 no effect, 10 complete control))

CSCCn1c(=O)on(C(=O)N(c2ccccc2)C(C)C)c1=O [Compound 419]
3: Blackgrass plant response rating (blackgrass; [7])
9: Crabgrass plant response rating (crabgrass; [7])
2: Morningglory plant response rating (morningglory; [7])
0: Plant response rating, Blackgrass (blackgrass; [1]) | Plant response rating, Blackgrass (blackgrass; [2]) | Plant response rating, Blackgrass (blackgrass; [4]) | Plant response rating, Blackgrass (blackgrass; [5]) | Blackgrass plant response rating (blackgrass; [6]) | Blackgrass plant response rating (blackgrass; [8]) | Plant response rating, Crabgrass (crabgrass; [1]) | Plant response rating, Crabgrass (crabgrass; [2]) | Plant response rating, Crabgrass (crabgrass; [4]) | Crabgrass plant response rating (crabgrass; [8]) | Plant response rating, Morningglory (morningglory; [4]) | Plant response rating, Morningglory (morningglory; [5]) | Plant response rating, Barnyardgrass (bamyardgrass; [10]) | Barnyardgrass plant response rating (bamyardgrass; [11]) | Barnyardgrass plant response rating (bamyardgrass; [12]) | Plant response rating, Barnyardgrass (bamyardgrass; [13])
4: Blackgrass plant response rating (blackgrass; [3]) | Crabgrass plant response rating (crabgrass; [9])
1: Crabgrass plant response rating (crabgrass; [3]) | Plant response rating, Crabgrass (crabgrass; [5]) | Morningglory plant response rating (morningglory; [9])
5: Plant response rating, Morningglory (morningglory; [2]) | Morningglory plant response rating (morningglory; [3])

CC(C)N(C(=O)n1oc(=O)n(CCl)c1=O)c1ccc(Cl)cc1 [Compound 422]
0: Plant response rating, Blackgrass (blackgrass; [2]) | Blackgrass plant response rating (blackgrass; [3]) | Plant response rating, Blackgrass (blackgrass; [4]) | Plant response rating, Blackgrass (blackgrass; [5]) | Blackgrass plant response rating (blackgrass; [6]) | Blackgrass plant response rating (blackgrass; [7]) | Blackgrass plant response rating (blackgrass; [8]) | Blackgrass plant response rating (blackgrass; [14]) | Plant response rating, Crabgrass (crabgrass; [2]) | Crabgrass plant response rating (crabgrass; [3]) | Plant response rating, Crabgrass (crabgrass; [4]) | Plant response rating, Crabgrass (crabgrass; [5]) | Crabgrass plant response rating (crabgrass; [9]) | Crabgrass plant response rating (crabgrass; [7]) | Crabgrass plant response rating (crabgrass; [8]) | Crabgrass plant response rating (crabgrass; [14]) | Plant response rating, Morningglory (morningglory; [2]) | Morningglory plant response rating (morningglory; [3]) | Plant response rating, Morningglory (morningglory; [4]) | Plant response rating, Morningglory (morningglory; [5]) | Morningglory plant response rating (morningglory; [9]) | Morningglory plant response rating (morningglory; [7]) | Morningglory plant response rating (morningglory; [14]) | Barnyardgrass plant response rating (bamyardgrass; [11]) | Barnyardgrass plant response rating (bamyardgrass; [12]) | Barnyardgrass plant response rating (bamyardgrass; Rate 125 g/ha, Postemergence section (flood test species), scale 0 to 10, 0 is no effect, 10 is complete control) | Plant response rating, Barnyardgrass (bamyardgrass; [13])
